# Laboratory results as given in ChEMBL document CHEMBL2040771, “Discovery of a potent inhibitor of anaplastic lymphoma kinase with in vivo antitumor activity” (ACS Med Chem Lett, 2010).
# Activity calls are given as the source filed them. The calls are words filed in the database; no cut-off is given here.
# Tests used:
# [1] = biological target: Mitogen-activated protein kinase 9 (Homo sapiens) (UniProt P45984); assay: Inhibition of JNK2 at 1 uM
# [2] = biological target: Focal adhesion kinase 1 (Homo sapiens) (UniProt Q05397); assay: Inhibition of FAK at 1 uM
# [3] = biological target: Platelet-derived growth factor receptor beta (Homo sapiens) (UniProt P09619); assay: Inhibition of PDGFRB at 0.1 uM
# [4] = Plasma clearance in SCID mouse at 1 mg/kg, iv by LC/MS/MS analysis; format: ADME, organism-based; parameters: dose 1 mg/kg, route intravenous
# Mus musculus [5] = assay: Toxicity in SCID mouse xenografted with human SUP-M2 cells assessed as weight loss at 30 mg/kg, po BID for 12 days; format: organism-based; parameters: dose 30 mg/kg, route oral; conditions: in vivo, 288 h
# [6] = biological target: Platelet-derived growth factor receptor beta (Homo sapiens) (UniProt P09619); assay: Inhibition of PDGFRB at 1 uM
# [7] = biological target: Protein-tyrosine kinase 6 (Homo sapiens) (UniProt Q13882); assay: Inhibition of BRK at 0.1 uM
# [8] = Inhibition of FLT3 ITD mutant at 0.1 uM
# [9] = Half life in Sprague-Dawley rat at 1 mg/kg, iv; format: ADME, organism-based; parameters: dose 1 mg/kg, route intravenous; conditions: in vivo
# KARPAS-299 = assay: Induction apoptosis in ALK-positive human KARPAS299 cells assessed as activation of caspase 3/7 by fluorometric assay; format: functional, cell-based
# SUP-M2 = assay: Antitumor activity against ALK-positive human SUP-M2 cells xenografted in SCID mouse at 10 mg/kg, po bid after 12 days; format: functional, organism-based; parameters: dose 10 mg/kg
# [10] = Tmax in SCID mouse at 10 mg/kg, po; format: ADME, organism-based; parameters: dose 10 mg/kg, route oral; conditions: in vivo
# [11] = Drug uptake in tumor lysates in SCID mouse xenografted with ALK-positive human SUP-M2 cells at 10 mg/kg, po bid for 12 days; format: ADME, organism-based, Neoplasm; parameters: dose 10 mg/kg, route oral; conditions: read-out: Drug uptake
# [12] = biological target: Focal adhesion kinase 1 (Homo sapiens) (UniProt Q05397); assay: Inhibition of FAK at 0.1 uM
# [13] = biological target: Serine/threonine-protein kinase PAK 3 (Homo sapiens) (UniProt O75914); assay: Inhibition of PAK3 at 0.1 uM
# [14] = biological target: Serine/threonine-protein kinase 3 (Homo sapiens) (UniProt Q13188); assay: Inhibition of MST2 at 0.1 uM
# [15] = test system: Receptor-type tyrosine-protein kinase FLT3 (Homo sapiens), P36888 [D835Y]; assay: Inhibition of FLT3 D835Y mutant at 0.1 uM
# [16] = AUC in Sprague-Dawley rat at 5 mg/kg, po; format: ADME, organism-based; parameters: dose 5 mg/kg, route oral; conditions: plasma
# [17] = biological target: Cyclin-G-associated kinase (Homo sapiens) (UniProt O14976); assay: Inhibition of GAK at 0.1 uM
# [18] = biological target: Mitogen-activated protein kinase 8 (Homo sapiens) (UniProt P45983); assay: Inhibition of JNK1 at 1 uM
# [19] = test system: Mast/stem cell growth factor receptor Kit (Homo sapiens), P10721 [D816V]; assay: Inhibition of KIT D816V mutant at 1 uM
# Mus musculus [20] = assay: Toxicity in SCID mouse xenografted with human SUP-M2 cells at 55 mg/kg, po BID for 12 days; format: organism-based; parameters: dose 55 mg/kg, route oral; conditions: in vivo, 288 h
# [21] = biological target: Mitogen-activated protein kinase kinase kinase 5 (Homo sapiens) (UniProt Q99683); assay: Inhibition of ASK1 at 0.1 uM
# [22] = biological target: Protein-tyrosine kinase 6 (Homo sapiens) (UniProt Q13882); assay: Inhibition of BRK at 1 uM
# [23] = biological target: Dual specificity protein kinase TTK (Homo sapiens) (UniProt P33981); assay: Inhibition of TTK at 0.1 uM
# [24] = biological target: Protein-tyrosine kinase 2-beta (Homo sapiens) (UniProt Q14289); assay: Inhibition of PYK2 at 1 uM
# [25] = biological target: Epidermal growth factor receptor (Homo sapiens) (UniProt P00533); assay: Inhibition of EGFR at 0.1 uM
# K562 = assay: Growth inhibition of ALK-negative human K562 cells up to 1 uM by MTS assay; format: functional, cell-based
# [26] = biological target: Dual specificity mitogen-activated protein kinase kinase 1 (Homo sapiens) (UniProt Q02750); assay: Inhibition of MEK1 at 1 uM
# [27] = biological target: Ribosomal protein S6 kinase alpha-1 (Homo sapiens) (UniProt Q15418); assay: Inhibition of RPS6KA1 at 0.1 uM
# [28] = test system: Receptor-type tyrosine-protein kinase FLT3 (Homo sapiens), P36888 [N841I]; assay: Inhibition of FLT3 N841I mutant at 1 uM
# [29] = biological target: NUAK family SNF1-like kinase 1 (Homo sapiens) (UniProt O60285); assay: Inhibition of ARK5 at 0.1 uM
# [30] = test system: Epidermal growth factor receptor (Homo sapiens), P04626+P00533+Q15303+P21860 [UNDEFINED MUTATION]; assay: Inhibition of EGFR L747 to E749 deletion, A750P mutant at 1 uM; format: protein assay
# [31] = Plasma concentration in SCID mouse xenografted with ALK-positive human SUP-M2 cells at 55 mg/kg, po bid for 12 days; format: ADME, organism-based; parameters: dose 55 mg/kg, route oral
# Mus musculus [32] = assay: Toxicity in SCID mouse xenografted with human SUP-M2 cells assessed as weight loss at 55 mg/kg, po BID for 12 days; format: organism-based; parameters: dose 55 mg/kg, route oral; conditions: in vivo, 288 h
# [33] = biological target: Epidermal growth factor receptor (Homo sapiens) (UniProt P04626+P00533+Q15303+P21860); assay: Inhibition of EGFR L747 to E749 deletion, A750P mutant at 0.1 uM; format: protein assay
# [34] = AUC in beagle dog at 10 mg/kg, po; format: ADME, organism-based, Canis lupus familiaris; parameters: dose 10 mg/kg, route oral; conditions: plasma
# [35] = biological target: Dual specificity mitogen-activated protein kinase kinase 4 (Homo sapiens) (UniProt P45985); assay: Inhibition of MEK4 at 0.1 uM
# [36] = Volume of distribution in beagle dog at 1 mg/kg, iv; format: ADME, organism-based, Canis lupus familiaris; parameters: dose 1 mg/kg, route intravenous; conditions: in vivo
# [37] = Drug uptake in tumor lysates in SCID mouse xenografted with ALK-positive human SUP-M2 cells at 55 mg/kg, po bid for 12 days; format: ADME, organism-based, Neoplasm; parameters: dose 55 mg/kg, route oral; conditions: read-out: Drug uptake
# [38] = biological target: Leukocyte tyrosine kinase receptor (Homo sapiens) (UniProt P29376); assay: Inhibition of LTK at 0.1 uM
# [39] = biological target: Vascular endothelial growth factor receptor 3 (Homo sapiens) (UniProt P35916); assay: Inhibition of FLT4 at 0.1 uM
# [40] = AUC in SCID mouse at 10 mg/kg, po; format: ADME, organism-based; parameters: dose 10 mg/kg, route oral; conditions: plasma
# [41] = Oral bioavailability in beagle dog at 10 mg/kg; format: ADME, organism-based, Canis lupus familiaris; conditions: in vivo
# [42] = Plasma concentration in SCID mouse xenografted with ALK-positive human SUP-M2 cells at 30 mg/kg, po bid for 12 days; format: ADME, organism-based; parameters: dose 30 mg/kg, route oral
# [43] = biological target: Fibroblast growth factor receptor 4 (Homo sapiens) (UniProt P22455); assay: Inhibition of FGFR4 at 0.1 uM
# [44] = Half life in beagle dog at 1 mg/kg, iv; format: ADME, organism-based, Canis lupus familiaris; parameters: dose 1 mg/kg, route intravenous; conditions: in vivo
# [45] = Half life in beagle dog at 10 mg/kg, po; format: ADME, organism-based, Canis lupus familiaris; parameters: dose 10 mg/kg, route oral; conditions: in vivo
# [46] = biological target: Proto-oncogene tyrosine-protein kinase ROS (Homo sapiens) (UniProt P08922); assay: Inhibition of ROS at 1 uM
# [47] = biological target: ALK tyrosine kinase receptor (Homo sapiens, UniProt Q9UM73); assay: Inhibition of NPM-ALK autophosphorylation in human KARPAS299 cells in presence of mouse plasma; format: cell-based; conditions: karpas-299
# Platelet-derived growth factor receptor beta (Homo sapiens), sequence (P09619 whole entry): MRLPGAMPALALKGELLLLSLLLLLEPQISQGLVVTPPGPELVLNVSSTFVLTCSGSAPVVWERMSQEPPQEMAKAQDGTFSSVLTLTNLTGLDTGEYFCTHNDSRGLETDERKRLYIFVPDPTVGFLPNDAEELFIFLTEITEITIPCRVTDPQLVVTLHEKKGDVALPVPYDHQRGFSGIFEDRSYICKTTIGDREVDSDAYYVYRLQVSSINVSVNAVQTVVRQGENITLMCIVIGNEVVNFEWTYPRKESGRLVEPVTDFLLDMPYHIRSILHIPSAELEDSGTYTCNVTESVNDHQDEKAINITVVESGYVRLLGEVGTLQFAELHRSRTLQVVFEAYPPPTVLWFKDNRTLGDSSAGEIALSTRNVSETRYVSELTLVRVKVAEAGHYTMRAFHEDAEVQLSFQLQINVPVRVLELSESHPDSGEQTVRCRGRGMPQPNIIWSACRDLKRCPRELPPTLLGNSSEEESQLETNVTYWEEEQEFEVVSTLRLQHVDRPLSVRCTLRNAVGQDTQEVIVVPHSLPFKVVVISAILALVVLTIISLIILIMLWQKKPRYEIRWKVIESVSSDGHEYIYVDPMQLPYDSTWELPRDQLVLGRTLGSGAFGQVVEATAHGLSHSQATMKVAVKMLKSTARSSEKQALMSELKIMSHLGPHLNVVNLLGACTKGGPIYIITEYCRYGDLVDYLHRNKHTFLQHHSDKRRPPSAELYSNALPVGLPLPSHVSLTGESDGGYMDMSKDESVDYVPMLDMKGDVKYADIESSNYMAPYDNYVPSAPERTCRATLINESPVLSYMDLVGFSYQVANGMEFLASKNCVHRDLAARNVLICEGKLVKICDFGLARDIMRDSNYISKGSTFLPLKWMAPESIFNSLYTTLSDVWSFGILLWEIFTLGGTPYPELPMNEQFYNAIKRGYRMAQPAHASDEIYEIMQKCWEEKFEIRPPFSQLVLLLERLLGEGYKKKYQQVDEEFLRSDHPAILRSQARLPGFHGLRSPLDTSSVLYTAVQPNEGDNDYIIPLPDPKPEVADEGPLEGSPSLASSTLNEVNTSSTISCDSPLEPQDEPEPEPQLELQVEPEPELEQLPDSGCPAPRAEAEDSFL
# Focal adhesion kinase 1 (Homo sapiens), sequence (Q05397 2-1052 limits assumed): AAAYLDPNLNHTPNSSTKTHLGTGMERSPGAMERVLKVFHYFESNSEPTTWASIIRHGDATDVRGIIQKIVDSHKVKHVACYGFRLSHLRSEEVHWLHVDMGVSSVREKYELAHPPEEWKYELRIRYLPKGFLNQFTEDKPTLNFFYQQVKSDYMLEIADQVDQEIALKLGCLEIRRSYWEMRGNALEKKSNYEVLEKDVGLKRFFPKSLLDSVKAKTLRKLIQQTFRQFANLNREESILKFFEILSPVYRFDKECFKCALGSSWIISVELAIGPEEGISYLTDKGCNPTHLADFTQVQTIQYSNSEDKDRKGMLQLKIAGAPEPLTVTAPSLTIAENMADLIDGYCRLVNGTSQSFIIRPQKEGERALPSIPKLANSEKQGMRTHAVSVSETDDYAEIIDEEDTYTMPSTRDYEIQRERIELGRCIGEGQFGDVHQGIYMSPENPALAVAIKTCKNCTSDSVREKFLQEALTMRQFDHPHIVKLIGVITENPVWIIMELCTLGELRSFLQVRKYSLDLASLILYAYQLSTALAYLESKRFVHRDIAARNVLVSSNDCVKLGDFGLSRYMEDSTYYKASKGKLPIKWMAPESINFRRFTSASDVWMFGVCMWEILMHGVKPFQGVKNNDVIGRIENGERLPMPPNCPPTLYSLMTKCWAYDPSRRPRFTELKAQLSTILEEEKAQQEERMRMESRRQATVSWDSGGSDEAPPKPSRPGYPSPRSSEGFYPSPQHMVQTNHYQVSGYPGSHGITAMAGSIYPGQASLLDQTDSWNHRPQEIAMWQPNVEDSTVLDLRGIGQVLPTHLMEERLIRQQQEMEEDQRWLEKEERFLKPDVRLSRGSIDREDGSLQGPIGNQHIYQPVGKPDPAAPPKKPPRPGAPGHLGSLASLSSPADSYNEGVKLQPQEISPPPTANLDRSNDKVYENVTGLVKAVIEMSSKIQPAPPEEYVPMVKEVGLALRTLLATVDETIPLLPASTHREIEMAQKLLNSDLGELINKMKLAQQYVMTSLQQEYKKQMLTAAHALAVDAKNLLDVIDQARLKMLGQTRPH
# Protein-tyrosine kinase 6 (Homo sapiens), sequence (Q13882 whole entry, looked up): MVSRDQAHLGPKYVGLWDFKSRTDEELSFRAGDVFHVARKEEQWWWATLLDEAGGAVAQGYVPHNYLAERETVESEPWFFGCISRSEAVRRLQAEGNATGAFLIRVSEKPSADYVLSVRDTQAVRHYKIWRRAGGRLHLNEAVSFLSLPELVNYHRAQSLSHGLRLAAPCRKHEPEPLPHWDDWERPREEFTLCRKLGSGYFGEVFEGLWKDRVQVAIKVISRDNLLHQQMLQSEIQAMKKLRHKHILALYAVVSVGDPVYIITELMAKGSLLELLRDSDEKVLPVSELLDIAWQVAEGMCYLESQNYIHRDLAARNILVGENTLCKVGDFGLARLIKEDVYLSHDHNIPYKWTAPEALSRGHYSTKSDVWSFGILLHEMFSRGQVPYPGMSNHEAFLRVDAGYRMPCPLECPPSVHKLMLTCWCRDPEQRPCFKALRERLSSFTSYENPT
# Ribosomal protein S6 kinase alpha-1 (Homo sapiens), sequence (Q15418 whole entry): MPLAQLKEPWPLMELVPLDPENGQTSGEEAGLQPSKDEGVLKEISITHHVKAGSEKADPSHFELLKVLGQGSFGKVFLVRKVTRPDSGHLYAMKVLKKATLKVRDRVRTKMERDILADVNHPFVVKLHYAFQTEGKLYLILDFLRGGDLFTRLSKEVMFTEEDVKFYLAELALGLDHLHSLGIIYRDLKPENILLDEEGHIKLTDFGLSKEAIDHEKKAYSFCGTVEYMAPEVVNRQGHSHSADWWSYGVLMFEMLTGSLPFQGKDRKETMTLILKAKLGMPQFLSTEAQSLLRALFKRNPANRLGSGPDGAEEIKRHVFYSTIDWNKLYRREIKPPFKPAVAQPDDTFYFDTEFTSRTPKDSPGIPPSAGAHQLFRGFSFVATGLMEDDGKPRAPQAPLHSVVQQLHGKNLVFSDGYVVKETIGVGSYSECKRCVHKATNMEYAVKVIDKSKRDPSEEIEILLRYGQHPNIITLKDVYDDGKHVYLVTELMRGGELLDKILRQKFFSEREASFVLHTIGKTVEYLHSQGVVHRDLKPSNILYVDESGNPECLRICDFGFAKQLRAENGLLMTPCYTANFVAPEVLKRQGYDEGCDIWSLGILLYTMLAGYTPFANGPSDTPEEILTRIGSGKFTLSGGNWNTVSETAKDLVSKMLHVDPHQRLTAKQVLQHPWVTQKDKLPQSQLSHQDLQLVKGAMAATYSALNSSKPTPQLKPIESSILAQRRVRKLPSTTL
# Mast/stem cell growth factor receptor Kit (Homo sapiens), P10721 [D816V], sequence (P10721 whole entry D816V): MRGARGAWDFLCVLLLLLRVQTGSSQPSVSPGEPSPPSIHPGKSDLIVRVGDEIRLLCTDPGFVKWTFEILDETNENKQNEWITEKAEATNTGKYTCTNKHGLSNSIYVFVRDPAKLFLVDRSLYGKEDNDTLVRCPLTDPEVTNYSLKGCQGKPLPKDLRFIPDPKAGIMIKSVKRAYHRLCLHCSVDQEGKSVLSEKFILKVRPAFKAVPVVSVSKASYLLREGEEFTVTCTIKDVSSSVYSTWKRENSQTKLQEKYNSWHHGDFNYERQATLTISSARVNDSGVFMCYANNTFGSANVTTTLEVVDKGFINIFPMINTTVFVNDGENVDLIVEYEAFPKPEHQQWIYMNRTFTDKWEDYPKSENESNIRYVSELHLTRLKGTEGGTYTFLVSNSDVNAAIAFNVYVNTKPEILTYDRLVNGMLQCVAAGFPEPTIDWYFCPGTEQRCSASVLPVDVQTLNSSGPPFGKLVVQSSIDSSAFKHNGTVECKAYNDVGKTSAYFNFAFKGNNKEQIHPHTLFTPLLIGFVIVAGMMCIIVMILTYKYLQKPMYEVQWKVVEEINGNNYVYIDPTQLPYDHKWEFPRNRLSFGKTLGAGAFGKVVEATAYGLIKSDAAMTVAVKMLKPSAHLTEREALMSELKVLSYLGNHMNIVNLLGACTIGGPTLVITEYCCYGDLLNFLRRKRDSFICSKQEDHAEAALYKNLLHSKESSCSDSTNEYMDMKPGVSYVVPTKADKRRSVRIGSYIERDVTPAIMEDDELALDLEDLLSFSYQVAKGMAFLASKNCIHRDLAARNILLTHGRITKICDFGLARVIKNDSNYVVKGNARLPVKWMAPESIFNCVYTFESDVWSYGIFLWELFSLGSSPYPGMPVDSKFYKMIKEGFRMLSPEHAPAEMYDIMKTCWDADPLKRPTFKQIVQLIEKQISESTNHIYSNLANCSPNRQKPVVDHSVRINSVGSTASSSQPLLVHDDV
# Mitogen-activated protein kinase 9 (Homo sapiens), sequence (P45984 whole entry, looked up): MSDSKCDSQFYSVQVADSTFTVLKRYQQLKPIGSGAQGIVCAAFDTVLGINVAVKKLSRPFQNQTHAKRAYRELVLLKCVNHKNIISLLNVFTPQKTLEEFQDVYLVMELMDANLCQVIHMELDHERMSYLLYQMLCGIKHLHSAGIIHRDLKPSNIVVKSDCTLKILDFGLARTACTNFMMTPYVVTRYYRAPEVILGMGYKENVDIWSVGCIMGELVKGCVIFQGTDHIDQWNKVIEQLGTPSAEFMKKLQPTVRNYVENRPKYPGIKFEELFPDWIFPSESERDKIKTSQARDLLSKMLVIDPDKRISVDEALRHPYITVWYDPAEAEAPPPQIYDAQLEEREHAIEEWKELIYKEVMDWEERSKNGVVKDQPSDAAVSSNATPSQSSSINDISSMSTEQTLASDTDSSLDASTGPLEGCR
structure (smiles),measurement,setting,value
CCN1C(=O)CCCc2c1ccc(Nc1ncc(Cl)c(N[C@H]3[C@@H](C(N)=O)[C@@H]4C=C[C@H]3C4)n1)c2OC,inhibition,[1],92%
same,inhibition,[2],99%
same,inhibition,[3],66%
same,clearance,[4],37 mL/min/kg
same,Activity,Mus musculus [5],Non-toxic
same,inhibition,[6],98%
same,inhibition,[7],88%
same,inhibition,[8],< 50%
same,half-life,[9],48 min
same,Activity,KARPAS-299,Active
same,Activity,SUP-M2,inactive
same,Tmax,[10],15 min
same,concentration at 288 h,[11],3560 ng/g
same,inhibition,[12],72%
same,inhibition,[13],< 50%
same,inhibition,[14],< 50%
same,inhibition,[15],90%
same,AUC,[16],4090 ng·h/mL
same,inhibition,[17],< 50%
same,inhibition,[18],100%
same,inhibition,[19],99%
same,Activity,Mus musculus [20],Non-toxic
same,inhibition,[21],72%
same,inhibition,[22],100%
same,inhibition,[23],96%
same,inhibition,[24],99%
same,inhibition,[25],< 50%
same,growth inhibition (GI),K562,inactive
same,inhibition,[26],91%
same,inhibition,[27],68%
same,inhibition,[28],95%
same,inhibition,[29],< 50%
same,inhibition,[30],94%
same,concentration at 288 h,[31],3700 ng/mL
same,Activity,Mus musculus [32],Non-toxic
same,inhibition,[33],< 50%
same,AUC,[34],2480 ng·h/mL
same,inhibition,[35],< 50%
same,Vd,[36],2.1 L/kg
same,concentration at 288 h,[37],1180 ng/g
same,inhibition,[38],96%
same,inhibition,[39],72%
same,AUC,[40],1410 ng·h/mL
same,bioavailability,[41],31%
same,concentration at 288 h,[42],1500 ng/mL
same,inhibition,[43],< 50%
same,half-life,[44],66 min
same,half-life,[45],96 min
same,inhibition,[46],93%
same,IC50,[47],225 nM
